Here are results for 15 compounds from patent US20230011571A1, “SMALL MOLECULE FURIN INHIBITORS FOR TREATING INFECTIOUS DISEASES” (BP Asset V, Inc., priority 2019, published 2023).

Format in all cases: cell-based
Test [1] relates to Chikungunya virus (CHIKV). Kind of test: microbe, parasite or virus in culture. The conditions noted are these: Chikungunya virus, Vero, 48 h, read-out: Percent viral inhibition CHKV.
For another test, the system named is dengue virus (DENV). Kind of test: microbe, parasite or virus in culture. The conditions noted are these: Dengue virus, Vero, 120 h, read-out: Percent viral inhibition DENY.
The test system of the next test is Marburg virus (MARV). Kind of test: organism not typed. Particulars: Vero, 72 h, read-out: Percent viral inhibition MARV.

What is called inhibition is how much of the control response was suppressed.

As to `COCCN1CCN(c2ccc(Oc3cc(CN4CCC(CNC(C)=O)CC4)cc(-c4cc(Cl)cc(Cl)c4)n3)cn2)CC1` [Example 250, N-((1-((2-(3,5-dichlorophenyl)-6-((6-(4-(2-methoxyethyl)piperazin-1-yl)pyridin-3-yl)oxy)pyridin-4-yl)methyl)piperidin-4-yl)methyl)acetamide], the inhibition at 1 µM in test [1] is 25.9%; in the test with dengue virus (DENV), 55%; in the test on Marburg virus (MARV) it was 0%.

`O=C(O)CC1CCN(Cc2cc(Oc3cnc(N4CCNC5(CC5)C4)nc3)nc(-c3cc(Cl)cc(Cl)c3)c2)CC1` [Example 164, 2-(1-((2-((2-(4,7-diazaspiro[2.5]octan-7-yl)pyrimidin-5-yl)oxy)-6-(3,5-dichlorophenyl)pyridin-4-yl)methyl)piperidin-4-yl)acetic acid]: the inhibition at 1 µM turned out to be 34.6% in test [1], 45.5% in the test with dengue virus (DENV) and 36.1% in the test on Marburg virus (MARV).

On to `CC(=O)NCC1CCN(Cc2cc(Oc3cnc(N4CCN(C[C@@H](C)O)CC4)nc3)nc(-c3cc(Cl)cc(Cl)c3)c2)CC1` [Example 302, (R)-N-((1-((2-(3,5-dichlorophenyl)-6-((2-(4-(2-hydroxypropyl)piperazin-1-yl)pyrimidin-5-yl)oxy)pyridin-4-yl)methyl)piperidin-4-yl)methyl)acetamide], for which the inhibition at 1 µM amounted to 39% in test [1], 26.6% with dengue virus (DENV) and 56.9% in the test with Marburg virus (MARV).

Consider `CNC(=O)CN1CCN(Cc2cc(Oc3ccc(N4CCNCC4)nc3)nc(-c3cc(Cl)cc(Cl)c3)c2)CC1` [Example 1, 2-(4-((2-(3,5-dichlorophenyl)-6-((6-(piperazin-1-yl)pyridin-3-yl)oxy)pyridin-4-yl)methyl)piperazin-1-yl)-N-methylacetamide], for which the values for the inhibition at 1 µM (in test [1]; in the test on dengue virus (DENV); in the test on Marburg virus (MARV)) were 6.99%, 0% and 0%, respectively.

As for `O=C(O)CC1CCN(Cc2cc(Oc3ccc(N4CCN(CCO)CC4)nc3)nc(-c3cc(Cl)cc(Cl)c3)c2)CC1` [Example 300, 2-(1-((2-(3,5-dichlorophenyl)-6-((6-(4-(2-hydroxyethyl)piperazin-1-yl)pyridin-3-yl)oxy)pyridin-4-yl)methyl)piperidin-4-yl)acetic acid], the values for the inhibition at 1 µM (in test [1]; in the test on dengue virus (DENV); in the test on Marburg virus (MARV)) were 18.2%, 0% and 45%, respectively.

`CC(=O)NCC1CCN(Cc2cc(Oc3cnc(N4CCNCC4)cn3)nc(-c3cc(Cl)cc(Cl)c3)c2)CC1` [Example 109, N-((1-((2-(3,5-dichlorophenyl)-6-((5-(piperazin-1-yl)pyrazin-2-yl)oxy)pyridin-4-yl)methyl)piperidin-4-yl)methyl)acetamide]: the inhibition at 1 µM in test [1] was determined as 7.33%; with dengue virus (DENV), 0%; in the test on Marburg virus (MARV), 32.9%.

With `CC(=O)NCC1CCN(Cc2cc(Oc3cnc(N4CCN(CC(O)C(=O)O)CC4)nc3)nc(-c3cc(Cl)cc(Cl)c3)c2)CC1` (stereo not drawn) [Example 316, 3-(4-(5-((4-((4-(acetamidomethyl)piperidin-1-yl)methyl)-6-(3,5-dichlorophenyl)pyridin-2-yl)oxy)pyrimidin-2-yl)piperazin-1-yl)-2-hydroxypropanoic acid], the inhibition at 1 µM in test [1] was found to be 30.6%; in the test with dengue virus (DENV), 55.9%; in the test with Marburg virus (MARV), 54.4%.

On to `CC(=O)NCC1CCN(Cc2cc(Oc3ccc(N4CCC5(CCNC5)C4)nc3)nc(-c3cc(Cl)cc(Cl)c3)c2)CC1` (stereo not drawn) [Example 199, N-((1-((2-((6-(2,7-diazaspiro[4.4]-nonan2-yl)pyridin-3-yl)oxy)-6-(3,5-dichlorophenyl)pyridin-4-yl)methyl)piperidin-4-yl)methyl)acetamide], for which the inhibition at 1 µM is 21.6% in test [1], 49% in the test on dengue virus (DENV) and 18.5% in the test with Marburg virus (MARV).

`CC(C)N1CCN(c2cnc(Oc3cc(CN4CCC(CC(=O)O)CC4)cc(-c4cc(Cl)cc(Cl)c4)n3)cn2)CC1` [Example 347, 2-(1-((2-(3,5-dichlorophenyl)-6-((5-(4-isopropylpiperazin-1-yl)pyrazin-2-yl)oxy)pyridin-4-yl)methyl)piperidin-4-yl)acetic acid]: the inhibition at 1 µM in test [1] was determined as 24.9%; with dengue virus (DENV), 56.8%; with Marburg virus (MARV), 57.7%.

Turning to `CC(=O)NCC1CCN(Cc2cc(Oc3cnc(N4CCN(C(C)CCC(=O)O)CC4)nc3)nc(-c3cc(Cl)cc(Cl)c3)c2)CC1` (stereo not drawn) [Example 215, 4-(4-(5-((4-((4-(acetamidomethyl)piperidin-1-yl)methyl)-6-(3,5-dichlorophenyl)pyridin-2-yl)oxy)pyrimidin-2-yl)piperazin-1-yl)pentanoic acid], the inhibition at 1 µM in test [1] was found to be 32.5%; with dengue virus (DENV), 24.4%; with Marburg virus (MARV) it was 56.7%.

Regarding `O=S(=O)(O)CCC1CCN(Cc2cc(Oc3ccc(N4CCNCC4)nc3)nc(-c3cc(Cl)cc(Cl)c3)c2)CC1` [Example 7, 2-(1-((2-(3,5-dichlorophenyl)-6-((6-(piperazin-1-yl)pyridin-3-yl)oxy)pyridin-4-yl)methyl)piperidin-4-yl) ethanesulfonic acid], the inhibition at 1 µM stood at 9.36% in test [1], 12.9% with dengue virus (DENV) and 51.9% in the test on Marburg virus (MARV).

Consider `CS(=O)(=O)CCCN1CCN(c2ncc(Oc3cc(CN4CCC(CCC(=O)O)CC4)cc(-c4cc(Cl)cc(Cl)c4)n3)cn2)CC1` [Example 272, 3-(1-((2-(3,5-dichlorophenyl)-6-((2-(4-(3-(methylsulfonyl)propyl)piperazin-1-yl)pyrimidin-5-yl)oxy)pyridin-4-yl)methyl)piperidin-4-yl)propanoic acid], for which the inhibition at 1 µM came out at 30.3% in test [1], 42.4% in the test on dengue virus (DENV) and 45.5% in the test on Marburg virus (MARV).

Turning to `CC(=O)NCC1CCN(Cc2cc(Oc3ccc(N4CCN(CCS(C)(=O)=O)CC4)nc3)nc(-c3cc(Cl)cc(Cl)c3)c2)CC1` [Example 12, N-((1-((2-(3,5-dischlorophenyl)-6-((6-(4-(2-(methylsulfonyl)ethyl)piperazin-1-yl)pyridin-3-yl)oxy)pyridin-4-yl)methyl)piperidin-4-yl)methyl)acetamide], the inhibition at 1 µM is 24.7% in test [1], 58.3% in the test with dengue virus (DENV) and 44.5% with Marburg virus (MARV).

Consider `CC(=O)NCC1CCN(Cc2cc(Oc3cnc(N4CCN(C)CC4)cn3)nc(-c3cc(Cl)cc(Cl)c3)c2)CC1` [Example 110, N-((1-((2-(3,5-dichlorophenyl)-6-((5-(4-methylpiperazin-1-yl)pyrazin-2-yl)oxy)pyridin-4-yl)methyl)piperidin-4-yl)methyl)acetamide], for which the inhibition at 1 µM in test [1] was determined as 9.88%; in the test with dengue virus (DENV) it was 13.6%; with Marburg virus (MARV), 59.5%.

As to `CNC(=O)OCC1CCN(Cc2cc(Oc3cnc(N4CCN(CCCS(C)(=O)=O)CC4)nc3)nc(-c3cc(Cl)cc(Cl)c3)c2)CC1` [Example 210, (1-((2-(3,5-dichlorophenyl)-6-((2-(4-(3-(methylsulfonyl)propyl)piperazin-1-yl)pyrimidin-5-yl)oxy)pyridin-4-yl)methyl)piperidin-4-yl)methylmethylcarbamate], the inhibition at 1 µM was determined as 3.75% in test [1], 21% with dengue virus (DENV) and 32.6% with Marburg virus (MARV).
